# Measured values as given in US8666671B2, “Method for determining drug-molecular combinations that modulate and enhance the therapeutic safety and efficacy of biological or pharmaceutical drugs” (Enhanced Pharmaceuticals, Inc., priority 2007, dated 2014).
# Tested on: rats
# Assay: In vivo response of rats (dP/dt, contractility of the heart) to Lopressor, dobutamine and Dob/Met
# Description: FIG. 2 presents empirical data of the in vivo response of rats to Lopressor® (the brand name for metoprolol used by Novartis Pharmaceuticals Corporation), dobutamine and the dobutamine/metoprolol specific combination ratio (Dob/Met);
# The Lopressor® acts much like an inverse agonist or negative antagonist in that it produces a steep decrease in the animals' dP/dt, which is a measure of the contractility of the heart. Although in this experimental context metoprolol may be inhibiting the sympathetic tone of these animals due to the production of their endogenous catacholamines, it functions much like an inverse agonist or negative antagonist. The data is plotted as the dP/dt response versus the dosages of the drugs or combination (dobutamine with metoprolol, Dob/Met). The average beginning baseline response was about 7400 mmHg/sec. From this baseline, the Lopressor® decreased dP/dt to below 2000. For the agonist, dobutamine, the average response for the rats labeled 8-11 are plotted with the unfilled circles. At doses below about 50 micrograms/kg/min, the responses rise to a peak value of about 11000 mmHg/sec, but at further dosages these values decline to below 4000 mmHg/sec.
# Examining the responses of metoprolol (Lopressor®) and dobutamine alone, one might think that in combination they would produce a more profound decline in the response to well below 2000 mmHg/sec. […] However, this method can predict these behaviors and is useful in determining other specific ratio combinations that produce a range of desirable responses in physiological systems.
SMILES,"dP/dt (contractility of the heart), decreased value (rats, in vivo, average beginning baseline about 7400 mmHg/sec, four individual rats)","dP/dt at further dosages (decline after peak) (rats 8-11, average response, doses above about 50 micrograms/kg/min)","dP/dt peak value (rats 8-11, average response, doses below about 50 micrograms/kg/min, baseline about 7400 mmHg/sec)"
"COCCc1ccc(OCC(O)CNC(C)C)cc1 (stereo not drawn) [Lopressor, metoprolol]",below 2000 mmHg/sec,,
CC(CCc1ccc(O)cc1)NCCc1ccc(O)c(O)c1 (stereo not drawn) [dobutamine],,below 4000 mmHg/sec,about 11000 mmHg/sec
